As a reminder, the pKa is the negative logarithm of the acid dissociation constant.

Converted amounts (≈) assume the structure as drawn. Like-named read-outs stand apart in the source and are kept apart here.

In US3985737A, “3-Sulfonate esters of cephalosporin” (Eli Lilly and Company, priority 1974, dated 1976) one finds MIC and pKa data, which are given here for 6 compounds.

One data set deals with Shigella sp. Kind of data set: Standard Gradient-Plate method, MIC vs. Shigella sp. The format is cell-based. As to conditions: in vitro, read-out: Minimum Inhibitory Concentration. From the text:
(§1) The 7-acylamido-3-cephem-3-sulfonate esters of the formula I wherein R1 is hydrogen (the free acid form) are useful antibiotic substances which are useful in combatting infections attributable to gram-positive and gram-negative bacteria and also penicillin resistant staphylococci. The antibacterial activity of these sulfonate esters is illustrated by the following in vitro test data obtained with representative compounds. In Table I below, the minimum inhibitory concentration (MIC) for representative compounds against gram-negative bacteria is presented. The data were obtained by the standard Gradient-Plate method.

The subject of another data set is Escherichia coli. Briefly: Standard Gradient-Plate method, MIC vs. Escherichia coli. It counts as cell-based. As to conditions: in vitro, read-out: Minimum Inhibitory Concentration.
Description: as §1

For another data set, the system named is Klebsiella pneumoniae. Briefly: Standard Gradient-Plate method, MIC vs. Klebsiella pneumoniae. The format is cell-based. As to conditions: in vitro, read-out: Minimum Inhibitory Concentration.
Description: as §1

The subject of another data set is Aerobacter aerogenes. Kind of data set: Standard Gradient-Plate method, MIC vs. Aerobacter aerogenes. The note with it: Klebsiella aerogenes, in vitro, read-out: Minimum Inhibitory Concentration. It counts as cell-based.
Description: as §1

A further data set concerns Salmonella heidelberg. Briefly: Standard Gradient-Plate method, MIC vs. Salmonella heidelberg. The note with it: Salmonella enterica, in vitro, read-out: Minimum Inhibitory Concentration. It counts as cell-based.
Description: as §1

In a further data set the test system is Pseudomonas aeruginosa. Briefly: Standard Gradient-Plate method, MIC vs. Pseudomonas aeruginosa. It counts as cell-based. As to conditions: in vitro, read-out: Minimum Inhibitory Concentration.
Description: as §1

Another data set concerns Serratia marcescens. Briefly: Standard Gradient-Plate method, MIC vs. Serratia marcescens. The format is cell-based. The note with it: in vitro, read-out: Minimum Inhibitory Concentration.
Description: as §1

Another data set is described as follows: Electrometric titration. As to conditions: 80% aqueous methyl cellosolve, 80 percent aqueous methyl cellosolve. The format is physicochemical. The source says: Electrometric titration (80 percent aqueous methyl cellosolve) pKa 3.9.
Electrometric titration in 80 percent aqueous methyl cellosolve pKa 4.15.
Electrometric titration in 80 percent aqueous methyl cellosolve pKa 4.75.
Electrometric titration (80 percent aqueous methyl cellosolve) pKa 4.4.
Electrometric titration (80 percent aqueous methyl cellosolve) pKa 4.25.

In the case of `CS(=O)(=O)OC1=C(C(=O)O)N2C(=O)C(NC(=O)[C@H](N)c3ccccc3)C2SC1` (stereo partly drawn) [Compound 6, 7-(D-phenylglycylamido)-3-methylsulfonyloxy-3-cephem-4-carboxylic acid], the MIC is 13.6 µg/mL (≈ 31.8 µM) with Shigella sp.; 19.5 µg/mL (≈ 45.6 µM) with Escherichia coli; 5.5 µg/mL (≈ 12.9 µM) with Klebsiella pneumoniae; 8.8 µg/mL (≈ 20.6 µM) in the data set on Aerobacter aerogenes; 7 µg/mL (≈ 16.4 µM) with Salmonella heidelberg; greater than 200 µg/mL with Pseudomonas aeruginosa. Moreover, the MIC in the data set on Serratia marcescens stood at 100 µg/mL (≈ 234 µM). Besides, the pKa in the data set “Electrometric titration” (read-out: pKa) was found to be 3.6; in the data set “Electrometric titration” (second of two pKa values, read-out: pKa (second value)), 6.75.
In the case of `CCS(=O)(=O)OC1=C(C(=O)O)N2C(=O)C(NC(=O)Cc3cccs3)[C@H]2SC1` (stereo partly shown) [Compound 2, 7-[2-(2-thienyl)acetamido]-3-ethylsulfonyloxy-3-cephem-4-carboxylic acid], the MIC is 7 µg/mL (≈ 16.2 µM) with Shigella sp.; 13.1 µg/mL (≈ 30.3 µM) with Escherichia coli; 7 µg/mL (≈ 16.2 µM) in the data set on Klebsiella pneumoniae; 3.5 µg/mL (≈ 8.09 µM) in the data set with Aerobacter aerogenes; 4 µg/mL (≈ 9.25 µM) in the data set with Salmonella heidelberg; greater than 200 µg/mL with Pseudomonas aeruginosa. For the same compound, the MIC in the data set with Serratia marcescens is 120 µg/mL (≈ 277 µM). The pKa in “Electrometric titration” (read-out: pKa) came to 4.15.
For the compound `O=C(Cc1cccs1)NC1C(=O)N2C(C(=O)O)=C(OS(=O)(=O)c3ccc(F)cc3)CS[C@H]12` (stereo partly shown) [Compound 5, 7-[2-(2-thienyl)acetamido]-3-(4-fluorobenzenesulfonyloxy)-3-cephem-4-carboxylic acid], the MIC in the data set on Shigella sp. was 16.5 µg/mL (≈ 33.1 µM); with Escherichia coli, 24 µg/mL (≈ 48.1 µM); in the data set on Klebsiella pneumoniae, 16.3 µg/mL (≈ 32.7 µM); in the data set on Aerobacter aerogenes it was 12 µg/mL (≈ 24.1 µM); in the data set with Salmonella heidelberg, 13.5 µg/mL (≈ 27.1 µM); with Pseudomonas aeruginosa, greater than 200 µg/mL. In addition, the MIC in the data set on Serratia marcescens was greater than 200 µg/mL. Further, the pKa in the data set “Electrometric titration” (read-out: pKa) worked out at 4.25.
Take `Cc1ccc(S(=O)(=O)OC2=C(C(=O)O)N3C(=O)C(NC(=O)Cc4cccs4)[C@H]3SC2)cc1` (stereo partly shown) [Compound 4, 7-[2-(2-thienyl)acetamido]-3-(p-toluenesulfonyloxy)-3-cephem-4-carboxylic acid]: the MIC in the data set on Shigella sp. is 19.5 µg/mL (≈ 39.4 µM); in the data set with Escherichia coli, 16.3 µg/mL (≈ 33 µM); in the data set on Klebsiella pneumoniae it was 9.3 µg/mL (≈ 18.8 µM); with Aerobacter aerogenes, 16.5 µg/mL (≈ 33.4 µM); with Salmonella heidelberg, 125 µg/mL (≈ 253 µM); in the data set on Pseudomonas aeruginosa it was greater than 200 µg/mL. In the data set with Serratia marcescens, the MIC is greater than 200 µg/mL. Further, the pKa in the data set “Electrometric titration” (read-out: pKa) is 4.4.
As for `CS(=O)(=O)OC1=C(C(=O)O)N2C(=O)C(NC(=O)Cc3cccs3)[C@H]2SC1` (stereo partly shown) [Compound 1, 7-[2-(2-thienyl)acetamido]-3-methylsulfonyloxy-3-cephem-4-carboxylic acid], the MIC with Shigella sp. is 10.7 µg/mL (≈ 25.6 µM); in the data set on Escherichia coli, 11 µg/mL (≈ 26.3 µM); in the data set with Klebsiella pneumoniae, 6.5 µg/mL (≈ 15.5 µM); in the data set with Aerobacter aerogenes, 3.5 µg/mL (≈ 8.36 µM); in the data set on Salmonella heidelberg it was 2 µg/mL (≈ 4.78 µM); in the data set on Pseudomonas aeruginosa it was greater than 200 µg/mL. In the data set with Serratia marcescens, the MIC turned out to be 110 µg/mL (≈ 263 µM). The pKa in the data set “Electrometric titration” (read-out: pKa) amounted to 3.9.
Turning to `CCCCS(=O)(=O)OC1=C(C(=O)O)N2C(=O)C(NC(=O)Cc3cccs3)[C@H]2SC1` (stereo partly shown) [Compound 3, 7-[2-(2-thienyl)acetamido]-3-n-butylsulfonyloxy-3-cephem-4-carboxylic acid], the MIC with Shigella sp. was 6.5 µg/mL (≈ 14.1 µM); in the data set with Escherichia coli, 8.8 µg/mL (≈ 19.1 µM); with Klebsiella pneumoniae, 5.5 µg/mL (≈ 11.9 µM); in the data set with Aerobacter aerogenes, 6 µg/mL (≈ 13 µM); in the data set with Salmonella heidelberg it was 6 µg/mL (≈ 13 µM); in the data set on Pseudomonas aeruginosa, greater than 200 µg/mL. In the data set with Serratia marcescens, the MIC was determined as 180 µg/mL (≈ 391 µM). The pKa in the data set “Electrometric titration” (read-out: pKa) came to 4.75.
